Experimental data reported in patent US5384309A, “Cyclized peptides and their use as platelet aggregation inhibitors” (Genentech, Inc., priority 1989, dated 1995).
pIC50: −log10 of the molar value. Like-named read-outs stand apart in the source and are kept apart here. Positions of bridges follow the written chain, without caps; N, C: chain ends. Non-standard residues stand in square brackets, D forms with d. Residues, ends and D or L forms follow the SMILES beside them. No end group written: not given here.

Tests used:
[1] = biological target: T1, purified human platelet GP llbllla receptor (Homo sapiens, UniProt P05106+P08514); experiment: biochemical; format: binding; settings: for pIC50: ELISA, fibrinogen-coated plates, solubilized GP llbllla, read-out: IC50, inhibition of fibrinogen binding to the GP llbllla platelet receptor
T1 construct: Platelet GP llbllla was prepared by the method of Fitzgerald, et al; from tissue; host or cells: human platelets
T1 sequence (P08514 32-887 limits assumed): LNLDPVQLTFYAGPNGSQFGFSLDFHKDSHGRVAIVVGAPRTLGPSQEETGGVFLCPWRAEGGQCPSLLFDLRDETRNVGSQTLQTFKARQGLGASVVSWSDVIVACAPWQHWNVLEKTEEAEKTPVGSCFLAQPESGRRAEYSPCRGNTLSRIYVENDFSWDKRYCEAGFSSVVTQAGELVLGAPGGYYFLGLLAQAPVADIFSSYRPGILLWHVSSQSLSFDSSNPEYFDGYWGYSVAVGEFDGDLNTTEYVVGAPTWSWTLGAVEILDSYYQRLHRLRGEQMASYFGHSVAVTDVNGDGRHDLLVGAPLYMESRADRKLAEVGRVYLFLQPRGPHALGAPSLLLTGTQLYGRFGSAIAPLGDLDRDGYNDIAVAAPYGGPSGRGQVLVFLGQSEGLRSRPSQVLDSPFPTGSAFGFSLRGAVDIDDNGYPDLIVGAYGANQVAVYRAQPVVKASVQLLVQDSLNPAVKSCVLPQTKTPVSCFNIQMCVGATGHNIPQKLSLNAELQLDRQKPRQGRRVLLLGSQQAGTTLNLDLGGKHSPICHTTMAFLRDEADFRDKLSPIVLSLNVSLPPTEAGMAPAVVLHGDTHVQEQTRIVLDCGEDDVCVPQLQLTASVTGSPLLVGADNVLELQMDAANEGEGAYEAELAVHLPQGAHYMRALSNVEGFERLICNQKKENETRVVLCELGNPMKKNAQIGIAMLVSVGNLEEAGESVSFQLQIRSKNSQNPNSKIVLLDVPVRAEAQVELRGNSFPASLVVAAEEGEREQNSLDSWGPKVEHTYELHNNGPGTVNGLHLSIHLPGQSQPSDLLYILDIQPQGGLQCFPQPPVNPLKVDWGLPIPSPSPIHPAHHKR
T1 sequence (P08514 891-1039 partner limits assumed): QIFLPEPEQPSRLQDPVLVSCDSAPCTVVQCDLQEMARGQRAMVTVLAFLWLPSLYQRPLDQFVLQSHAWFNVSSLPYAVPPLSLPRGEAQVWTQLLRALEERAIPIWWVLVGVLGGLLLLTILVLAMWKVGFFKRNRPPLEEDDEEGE
T1 sequence (P05106 27-788): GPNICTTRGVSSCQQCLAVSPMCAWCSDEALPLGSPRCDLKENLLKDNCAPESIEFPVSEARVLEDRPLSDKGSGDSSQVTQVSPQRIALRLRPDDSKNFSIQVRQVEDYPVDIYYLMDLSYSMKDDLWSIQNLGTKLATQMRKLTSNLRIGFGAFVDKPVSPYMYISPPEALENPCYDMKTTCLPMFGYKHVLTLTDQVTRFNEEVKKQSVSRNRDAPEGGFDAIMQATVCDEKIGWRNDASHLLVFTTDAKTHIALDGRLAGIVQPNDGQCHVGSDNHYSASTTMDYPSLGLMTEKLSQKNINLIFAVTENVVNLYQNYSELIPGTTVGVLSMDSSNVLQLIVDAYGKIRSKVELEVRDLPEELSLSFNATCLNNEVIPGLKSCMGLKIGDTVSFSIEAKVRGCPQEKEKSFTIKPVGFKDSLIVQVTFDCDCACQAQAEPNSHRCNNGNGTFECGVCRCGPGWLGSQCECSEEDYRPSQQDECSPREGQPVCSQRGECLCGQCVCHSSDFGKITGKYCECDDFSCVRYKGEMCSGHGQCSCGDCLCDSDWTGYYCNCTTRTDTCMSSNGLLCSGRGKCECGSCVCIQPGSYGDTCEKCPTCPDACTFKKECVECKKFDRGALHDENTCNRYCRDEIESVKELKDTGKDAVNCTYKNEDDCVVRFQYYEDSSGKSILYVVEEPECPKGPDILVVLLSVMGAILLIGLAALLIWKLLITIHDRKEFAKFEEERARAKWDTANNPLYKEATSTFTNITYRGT
Procedure: In-vitro biological activity of the compounds of Formula I was monitored using a modified fibrinogen--GP llbllla ELISA based on the method of Nachman and Leung (J. Clin. Invest. (1982) 69, 263-269) which measures the inhibition of fibrinogen binding to purified human platelet GP llbllla receptor. Human fibrinogen was prepared by the method of Lipinska, et al. (J. Lab. Grin. Med. (1974) 84, 509-516). Platelet GP llbllla was prepared by the method of Fitzgerald, et al. (Anal. Blochem. (1985) 151,169-177.
Microtiter plates are coated with fibrinogen (10 ug/ml) and then blocked with TACTS buffer containing 0.5% bovine serum albumin (BSA). (TACTS buffer contains 20 mM Tris. HCl, pH 7.5, 0.02% sodium azide, 2 mM calcium chloride, 0.05% Tween 20, 150 mM sodium chloride.) The plate is washed with phosphate buffered saline (PBS) containing 0.01% Tween 20 and the sample to be determined added, followed by addition of solubilized GP llbllla receptor (40 ug/ml) in TACTS, 0.5% BSA. After incubation, the plate is washed and 1 ug/ml of murine anti-platelet monoclonal antibody AP3 (P. J. Newman et al. Blood (1985) 65, 227-232) is added. After another wash a goat anti-mouse IgG conjugated to horseradish peroxidase is added. A final wash is performed and developing reagent buffer (10 mg o-phenylenediamine dihydrochloride, 0.0212% hydrogen peroxide, 0.22 mM citrate, 50 mM phosphate, pH 5.0) is added and then incubated until color develops. The reaction is stopped with 1N sulfuric acid and the absorbance at 492 nm is recorded.
Microtiter plates are coated with fibrinogen (10 ug/ml) and then blocked with TACTS buffer containing 0.5% BSA. (TACTS buffer contains 20mM Tris. HCl, pH 7.5, 0.02% sodium azide, 2 mM calcium chloride, 0.05% Tween 20, 150 mM sodium chloride.) The plate is washed with phosphate buffered saline containing 0.01% Tween 20 and a dilution of the sample to be determined added, followed by addition of solubilized llbllla receptor (40 ug/ml) in TACTS, 0.5% BSA. After incubation, the plate is washed and murine monoclonal anti-platelet antibody AP3 (1 ug/ml) added. After another wash goat and anti-mouse IgG conjugated to horseradish peroxidase is added. A final wash is performed and developing reagent buffer (10 mg o-phenylenediamine dihydrochloride, 0.0212% hydrogen peroxide, 0.22 mM citrate, 50 mM phosphate, pH 5.0) is added and then incubated until color developed. The reaction is stopped with 1N sulfuric acid and the absorbance at 492 nm is recorded.

[2] = biological target: human platelet rich plasma (PRP) platelets (Homo sapiens, UniProt P05106+P08514); experiment: platelet aggregation inhibition in human platelet rich plasma (ADP induced); format: cell-based; settings: ADP 8 uM
Sequence of human platelet rich plasma (PRP) platelets (P08514 32-1039): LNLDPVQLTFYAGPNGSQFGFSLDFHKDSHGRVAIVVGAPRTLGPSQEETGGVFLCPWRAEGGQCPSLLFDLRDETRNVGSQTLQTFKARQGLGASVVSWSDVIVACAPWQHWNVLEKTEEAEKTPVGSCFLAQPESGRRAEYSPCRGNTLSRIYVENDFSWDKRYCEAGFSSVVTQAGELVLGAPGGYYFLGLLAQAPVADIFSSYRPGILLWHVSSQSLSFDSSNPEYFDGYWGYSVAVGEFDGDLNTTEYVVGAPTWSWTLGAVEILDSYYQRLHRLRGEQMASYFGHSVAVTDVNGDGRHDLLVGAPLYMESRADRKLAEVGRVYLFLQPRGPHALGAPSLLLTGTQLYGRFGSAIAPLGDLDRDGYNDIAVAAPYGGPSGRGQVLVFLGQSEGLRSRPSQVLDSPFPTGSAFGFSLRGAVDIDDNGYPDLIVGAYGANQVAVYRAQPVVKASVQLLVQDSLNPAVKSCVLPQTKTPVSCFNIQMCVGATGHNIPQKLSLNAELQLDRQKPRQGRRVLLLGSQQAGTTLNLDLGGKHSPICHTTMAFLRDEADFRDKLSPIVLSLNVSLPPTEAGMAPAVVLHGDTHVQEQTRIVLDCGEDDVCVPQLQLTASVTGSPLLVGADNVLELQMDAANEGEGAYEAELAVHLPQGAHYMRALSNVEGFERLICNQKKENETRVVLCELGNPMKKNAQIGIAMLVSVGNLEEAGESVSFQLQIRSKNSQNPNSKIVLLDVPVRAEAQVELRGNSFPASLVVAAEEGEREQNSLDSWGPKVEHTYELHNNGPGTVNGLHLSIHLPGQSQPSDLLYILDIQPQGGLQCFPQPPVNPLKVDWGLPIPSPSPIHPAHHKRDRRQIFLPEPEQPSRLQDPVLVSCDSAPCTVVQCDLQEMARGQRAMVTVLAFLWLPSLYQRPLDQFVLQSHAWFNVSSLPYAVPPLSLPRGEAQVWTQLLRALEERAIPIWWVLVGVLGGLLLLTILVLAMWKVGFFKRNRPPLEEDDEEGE
Sequence of human platelet rich plasma (PRP) platelets (P05106 27-788): as the sequence (P05106 27-788) above
Procedure: In addition to the GP llbllla ELISA assay, platelet aggregation assays may be performed in human platelet rich plasma (PRP). Fifty milliliters of whole human blood (9 parts) is drawn on 3.6% sodium citrate (1 part) from a donor who has not taken aspirin or related medications for at least two weeks. The blood is centrifuged at 160 ×g for 10 min at […] and then allowed to stand for 5 min after which the PRP is decanted. Platelet poor plasma (PPP) is isolated from the remaining blood after centrifugation at 2000×g for 25 min. The platelet count of the PRP was diluted to ca. 300000 per microliter with PPP.
A 225 uL aliquot of PRP plus 25 uL of either a dilution of the test sample or a control (PBS) is incubated for 5 min in a Chrono-log Whole Blood Aggregometer at 25° C. An aggregatng agent (collagen, 1 ug/ml; U46619, 100 ng/ml; or ADP, 8 uM) is added and the platelet aggregation recorded.
Fifty milliliters of whole human blood (9 parts) is drawn on 3.6% sodium citrate (1 part) from a donor who has not taken aspirin or related medications for at least two weeks. The blood is centrifuged at 160×g for 10 min at 22° C. and then allowed to stand for 5 min after which the PRP is decanted. Platelet poor plasma (PPP) is isolated from the remaining blood after centrifugation at 2000×g for 25 min. The platelet count of the PRP was diluted to ca. 300000 per microliter with PPP.
A 225 uL aliquot of PRP plus 25 uL of either a dilution of the test sample or a control (PBS) is incubated for 5 min in a Chrono-log Whole Blood Aggregometer at 25° C. Adenosine diphosphate (ADP, 8 uM) is added and the platelet aggregation recorded.

[3] = GP IIbIIIa receptor assay for inhibition of fibrinogen binding, smaller ratio = more active

N=C(N)NCCC[C@H](N)C(=O)NCC(=O)N[C@@H](CC(=O)O)C(=O)N[C@@H](CO)C(=O)O [Arg--Gly--Asp--Ser, reference compound]
Ratio of IC50 of test compound to IC50 of Gly-Arg-Gly-Asp-Val [1]: > 20

CC(C)[C@H](NC(=O)[C@H](CC(=O)O)NC(=O)CNC(=O)[C@@H](N)CCCNC(=N)N)C(=O)O [Arg--Gly--Asp--Val, reference compound] (H-RGDV-OH)
Ratio of IC50 of test compound to IC50 of Gly-Arg-Gly-Asp-Val [1]: 3

N=C(N)NCCC[C@@H]1NC(=O)CNC(=O)CSC[C@@H](C(=O)O)NC(=O)[C@H](CC(=O)O)NC(=O)CNC1=O [Ex. 2, cyclo-S-acetyl-Gly-Arg-Gly-Asp-Cys-OH] ({CH2CO}-GRGDC-OH; thioether N-5)
pIC50 [2]: 5.10
Ratio of IC50 of test compound to IC50 of Gly-Arg-Gly-Asp-Val [1, 3]: 0.14

N=C(N)NCCC[C@@H]1NC(=O)[C@@H](CC(N)=O)NC(=O)CSC[C@@H](C(=O)O)NC(=O)[C@H](CC(=O)O)NC(=O)CNC1=O [Ex. 5, cyclo-S-acetyl-(dAsn)-Arg--Gly--Asp--Cys--OH] ({CH2CO}-[dN]RGDC-OH; thioether N-5)
Ratio of IC50 of test compound to IC50 of Gly-Arg-Gly-Asp-Val [1]: 0.14

C[C@@H](O)[C@@H]1NC(=O)CSC[C@@H](C(=O)O)NC(=O)[C@H](CC(=O)O)NC(=O)CNC(=O)[C@H](CCCNC(=N)N)NC1=O [Ex. 6, cyclo-S-acetyl-Thr--Arg--Gly--Asp--Cys--OH] ({CH2CO}-TRGDC-OH; thioether N-5)
Ratio of IC50 of test compound to IC50 of Gly-Arg-Gly-Asp-Val [1]: 0.46

C[C@H](O)[C@H]1NC(=O)CSC[C@@H](C(=O)O)NC(=O)[C@H](CC(=O)O)NC(=O)CNC(=O)[C@H](CCCNC(=N)N)NC1=O [Ex. 7, Cyclo-S-acetyl-(d-Thr)-Arg-Gly-Asp-Cys-OH] ({CH2CO}-[dT]RGDC-OH; thioether N-5)
Ratio of IC50 of test compound to IC50 of Gly-Arg-Gly-Asp-Val [1, 3]: 0.07

C[C@H](O)[C@H]1NC(=O)CSC[C@@H](C(=O)O)NC(=O)[C@H](CC(=O)O)NC(=O)CNC(=O)[C@H](CCCN=C(N)N)NC1=O [Ex. 7, Cyclo-S-acetyl-(d-Thr)-Arg-Gly-Asp-Cys-OH] ({CH2CO}-[dT]RGDC-OH; thioether N-5)
pIC50 [2]: 6.10

C[C@@H]1NC(=O)CSC[C@@H](C(=O)O)NC(=O)[C@H](CC(=O)O)NC(=O)CNC(=O)[C@H](CCCNC(=N)N)NC1=O [Ex. 8, cyclo-S-acetyl-Ala--Arg--Gly--Asp--Cys--OH] ({CH2CO}-ARGDC-OH; thioether N-5)
Ratio of IC50 of test compound to IC50 of Gly-Arg-Gly-Asp-Val [1]: 0.5

C[C@H]1NC(=O)CSC[C@@H](C(=O)O)NC(=O)[C@H](CC(=O)O)NC(=O)CNC(=O)[C@H](CCCNC(=N)N)NC1=O [Ex. 9, cyclo-S-acetyl-(dAla)-Arg--Gly--Asp--Cys--OH] ({CH2CO}-[dA]RGDC-OH; thioether N-5)
pIC50 [2]: 5.52
Ratio of IC50 of test compound to IC50 of Gly-Arg-Gly-Asp-Val [1, 3]: 0.13

N=C(N)NCCC[C@@H]1NC(=O)[C@H](Cc2ccc(O)cc2)NC(=O)CSC[C@@H](C(=O)O)NC(=O)[C@H](CC(=O)O)NC(=O)CNC1=O [Ex. 10, cyclo-S-acetyl-Tyr--Arg--Gly--Asp--Cys--OH] ({CH2CO}-YRGDC-OH; thioether N-5)
Ratio of IC50 of test compound to IC50 of Gly-Arg-Gly-Asp-Val [1]: 0.38

N=C(N)NCCC[C@@H]1NC(=O)[C@@H]2CCCN2C(=O)CSC[C@@H](C(=O)O)NC(=O)[C@H](CC(=O)O)NC(=O)CNC1=O [Ex. 12, cyclo-S-acetyl-Pro--Arg--Gly--Asp--Cys--OH] ({CH2CO}-PRGDC-OH; thioether N-5)
Ratio of IC50 of test compound to IC50 of Gly-Arg-Gly-Asp-Val [1]: 0.46

N=C(N)NCCC[C@@H]1NC(=O)[C@H]2CCCN2C(=O)CSC[C@@H](C(=O)O)NC(=O)[C@H](CC(=O)O)NC(=O)CNC1=O [Ex. 13, cyclo-S-acetyl-(dPro)-Arg--Gly--Asp--Cys--OH] ({CH2CO}-[dP]RGDC-OH; thioether N-5)
pIC50 [2]: 5.70
Ratio of IC50 of test compound to IC50 of Gly-Arg-Gly-Asp-Val [1, 3]: 0.05

N=C(N)NCCC[C@@H]1NC(=O)CNC(=O)C(c2ccccc2)SC[C@@H](C(=O)O)NC(=O)[C@H](CC(=O)O)NC(=O)CNC1=O (some centres unmarked) [Ex. 18, cyclo-S-Phenylacetyl-Gly--Arg--Gly--Asp--Cys--OH]
pIC50 [2]: 5.52

N=C(N)NCCC[C@@H]1NC(=O)CNC(=O)CSC[C@@H](C(=O)O)NC(=O)[C@H](CC(=O)O)NC(=O)CNC1=O [cyclo-S-acetyl-Gly-Arg-Gly-Asp-Cys-OH] ({CH2CO}-GRGDC-OH; thioether N-5)
pIC50 [2]: 5.07
pIC50 [1]: 8.30

GRGDV [Gly--Arg--Gly--Asp--Val, reference compound] [listing 1 of 2 here]
pIC50 [1]: 7.40 to 7.70

GRGDV [Gly--Arg--Gly--Asp--Val, reference compound] [listing 2 of 2 here]
Ratio of IC50 of test compound to IC50 of Gly-Arg-Gly-Asp-Val [1, 3]: 1
